Experimental data as given in PubChem BioAssay AID2060620 (Molecular Pharmacology Branch, DTP, NCI, 2025).
“And” between values parts separate entries of the source, which are not always exact repeats. Equal values may be shown once.

System: 328373-195-R-J1-PDC complex spheroids, viability % test/control
Assay: Anticancer human tumor 328373-195-R-J1-PDC patient-derived head and neck squamous carcinoma cell line growth inhibition [CLK]
Details: for viability, T/C: stronger effect = lower value; for IC50: curve of compound
Summary of the method: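 Patient-derived tumor cells grown as complex spheroids with HUVEC endothelial cells and mesenchymal stem cells, treated with drug combinations. Concentrations descend in half-log steps from near clinical Cmax, or from 10 microM if Cmax unknown.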
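Also: spheroids exposed to the agents for 7 days.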

| IC50 | Structure (SMILES) | viability, T/C (compound 0.0316 µM) | viability, T/C (compound 0.1 µM) | viability, T/C (compound 0.316 µM) | viability, T/C (compound 1 µM) | viability, T/C (compound 3.16 µM) | viability, T/C (compound 10 µM) | viability, T/C (compound 0.000949 µM) | viability, T/C (compound 0.003 µM) | viability, T/C (compound 0.00949 µM) | viability, T/C (compound 0.03 µM) | viability, T/C (compound 0.0949 µM) | viability, T/C (compound 0.3 µM) | viability, T/C (compound 0.00316 µM) | viability, T/C (compound 0.01 µM) |
| --- | --- | --- | --- | --- | --- | --- | --- | --- | --- | --- | --- | --- | --- | --- | --- |
| 6.04 µM and 4.85 µM | CC1(C)CCC(CN2CCN(c3ccc(C(=O)NS(=O)(=O)c4ccc(NCC5CCOCC5)c([N+](=O)[O-])c4)c(Oc4cnc5[nH]ccc5c4)c3)CC2)=C(c2ccc(Cl)cc2)C1 | 103% and 85% | 88.8% and 76.7% | 95.1% and 98.1% | 90% and 84% | 81.7% and 74.5% | 25.7% and 8.47% | – | – | – | – | – | – | – | – |
| > 10 µM | CC(CO)NC(=O)c1cc(-c2ccc(Cl)cc2)nn(-c2cnn(C)c2)c1=O (stereo not drawn) | 101% and 99.6% | 105% and 97% | 105% and 113% | 112% and 109% | 112% and 119% | 88.7% and 91.8% | – | – | – | – | – | – | – | – |
| > 0.3 µM | C=CC(=O)Nc1cc(Nc2nccc(-c3cn(C)c4ccccc34)n2)c(OC)cc1N(C)CCN(C)C | – | – | – | – | – | – | 97.9% and 96% | 96.8% and 91.2% | 94% and 91.6% | 94.2% and 92.4% | 83.8% and 91.1% | 91.3% and 84.8% | – | – |
| 0.0801 µM and 0.152 µM | COc1c(OCCCN2CCOCC2)ccc2c3n(c(=NC(=O)c4cnc(N)nc4)nc12)CCN3 | 64.5% and 74.9% | 51.9% and 66.5% | 19.2% and 24.7% | 10.7% and 7.66% | – | – | – | – | – | – | – | – | 98.7% and 88.6% | 87.2% and 84.5% |
